# Structures can show the parent of a compound that is named as a salt.
# Tested on: HT29
# Conditions: 72 h, relative to DMSO, 10 µM, Relative cell viability (%)
# In short: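 HT29 viability used WST-1 reduction (2 h, 37 °C, A450) after 72 h of treatment; screening compounds were tested singly at 10 µM, with dimethyl sulfoxide as the comparison.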
row,Compound,Relative cell viability (%)
1,COc1cc(Nc2ncc(F)c(Nc3ccc4c(n3)N(COP(=O)(O)O)C(=O)C(C)(C)O4)n2)cc(OC)c1OC [R788 (Fostamatinib) Disodium],100.8%
2,CN1CCN(c2ccc3nc(-c4c(N)c5c(F)cccc5[nH]c4=O)[nH]c3c2)CC1 [Dovitinib (TKI-258) Dilactic Acid],12.62%
3,COc1ccccc1Oc1c(NS(=O)(=O)c2ccc(C(C)(C)C)cc2)nc(-c2ncccn2)nc1OCCO [Bosentan],63.94%
4,CCOC(=O)C1=C(COCCN)NC(C)=C(C(=O)OC)C1c1ccccc1Cl (stereo not shown) [Amlodipine besylate (Norvasc)],75.42%

# Same assay, conditions: 72 h, relative to DMSO; 10 µM
row,Compound,Relative cell viability (%)
1,NC(N)=Nc1nc(CSCCC(N)=NS(N)(=O)=O)cs1 [Famotidine],119.6%
2,COC(=O)Nc1nc2ccc([S+]([O-])c3ccccc3)cc2[nH]1 (stereo not shown) [Oxfendazole],57.63%
3,Cc1ccc(Cl)c(Nc2ccccc2C(=O)O)c1Cl [Meclofenamate Sodium],83.03%
4,N#C[C@@H]1C[C@@H]2C[C@@H]2N1C(=O)[C@@H](N)C12CC3CC(CC(O)(C3)C1)C2 [Saxagliptin hydrate],117.5%
5,CN(C)Cc1ccc(S(=O)(=O)n2ccc(/C=C/C(=O)NO)c2)cc1 [Resminostat],19.9%
6,CCCc1cc(C(N)=S)ccn1 [Protionamide],123.7%
7,Cc1ccc([C@@H]2O[C@H](CO)[C@@H](O)[C@H](O)[C@H]2O)cc1Cc1ccc(-c2ccc(F)cc2)s1 [Canagliflozin],72.33%
8,COc1cc([C@@H]2c3cc4c(cc3[C@@H](O[C@@H]3O[C@@H]5CO[C@@H](c6cccs6)O[C@H]5[C@H](O)[C@H]3O)[C@H]3COC(=O)[C@H]23)OCO4)cc(OC)c1O [Teniposide],34.75%
9,CC(C)[C@H]1C(=O)N[C@@H](CCCN=C(N)N)C(=O)NCC(=O)N[C@@H](CC(=O)O)C(=O)N[C@H](Cc2ccccc2)C(=O)N1C [Cilengitide],61.11%
10,NC(=O)OCC(COC(N)=O)c1ccccc1 [Felbamate],69.63%
11,Nc1nc2c(ncn2CCC(CO)CO)c(=O)[nH]1 [Penciclovir],100.303%
12,CCCCNC(=O)NS(=O)(=O)c1ccc(C)cc1 [Tolbutamide],106.1%
13,O=c1[nH]c(=O)n([C@H]2C[C@H](O)[C@@H](CO)O2)cc1C(F)(F)F [Trifluridine],53.81%
14,CN1CCC(=C2c3ccccc3C=Cc3ccccc32)CC1 [Cyproheptadine HCl],44.58%
15,COc1cc2nc(N3CCN(C(=O)C4COc5ccccc5O4)CC3)nc(N)c2cc1OC (stereo not shown) [Doxazosin Mesylate],63.4%
16,C[C@@H]1C[C@H]2[C@@H]3CCC4=CC(=O)C=C[C@]4(C)[C@@]3(Cl)[C@@H](O)C[C@]2(C)[C@@]1(OC(=O)c1ccco1)C(=O)CCl [Mometasone furoate],144.2%
17,CC1=NN(c2ccc(C)c(C)c2)C(=O)/C1=N\Nc1cccc(-c2cccc(C(=O)O)c2)c1O [Eltrombopag Olamine],122%
18,COc1cccc2c1C(=O)c1c(O)c3c(c(O)c1C2=O)C[C@@](O)(C(C)=O)C[C@@H]3O[C@H]1C[C@H](N)[C@H](O)[C@H](C)O1 [Daunorubicin HCl],12.62%
19,C[C@H]1CNCCCN1S(=O)(=O)c1cccc2cncc(F)c12 [Ripasudil (K-115)],118.8%
20,"C[C@@H](CN1CC(=O)NC(=O)C1)N1CC(=O)NC(=O)C1 [Dexrazoxane HCl (ICRF-187, ADR-529)]",75.86%
21,N#CC(c1ccc(Cl)cc1)c1c(Cl)cc(-n2ncc(=O)[nH]c2=O)cc1Cl (stereo not shown) [Diclazuril],219%
22,OCCOCCN1CCN(C2=Nc3ccccc3Sc3ccccc32)CC1 [Quetiapine Fumarate],47.46%

row,Compound,Relative cell viability (%)
1,CC(=O)Oc1ccccc1C(=O)O [Aspirin],63.59%
2,O=C(NS(=O)(=O)c1ccc(Br)s1)c1ccc(Cl)cc1Cl [Tasisulam],94.44%
3,C[C@H]1C[C@@H]2[C@H]([C@@H](O)C[C@@]3(C)[C@H]2CC[C@]3(O)C(=O)CO)[C@@]2(C)C=CC(=O)C=C12 [Methylprednisolone],42.37%
4,O=C1CCc2cc(OCCCCc3nnnn3C3CCCCC3)ccc2N1 [Cilostazol],80.53%
5,"CCn1c(=O)c(-c2cc[nH]n2)cc2c(C)nc(N)nc21 [Voxtalisib (XL765, SAR245409)]",31.62%
6,O=c1ccn([C@@H]2O[C@H](CO)[C@@H](O)[C@H]2O)c(=O)[nH]1 [Uridine],222.2%
7,CC1(COc2ccc3c(c2)ncn3-c2ccc3cccc(N4CCC(N)CC4)c3n2)COC1 [Crenolanib (CP-868596)],11.17%
8,FC(F)(F)c1ccc(/C=C/c2nc(COc3ccc(CCCCn4ccnn4)cc3)co2)cc1 [Mubritinib (TAK 165)],116.7%
9,NC(=O)Cc1cccc(C(=O)c2ccccc2)c1N [Nepafenac],77.41%
10,O=C(CCCCCCNC(=O)c1cnc(N(c2ccccc2)c2ccccc2)nc1)NO [Rocilinostat (ACY-1215)],32.91%
11,CCCN[C@H]1CCc2nc(N)sc2C1 [Pramipexole dihydrochloride monohydrate],205.2%
12,"CC(C)Nc1cc(-c2c[nH]c(C(=O)N[C@H](CO)c3cccc(Cl)c3)c2)c(Cl)cn1 [Ulixertinib (BVD-523, VRT752271)]",30.34%
13,CCOc1nc2cccc(C(=O)O)c2n1Cc1ccc(-c2ccccc2-c2noc(=O)[nH]2)cc1 [Azilsartan],73.79%
14,c1cn2cc(-c3ccc4cn[nH]c4c3)nc(Nc3ccc(N4CCOCC4)cc3)c2n1 [GS-9973],116.2%
15,CCCc1cc(=O)[nH]c(=S)[nH]1 [Propylthiouracil],201.3%
16,CC/C(=C(/CC)c1ccc(O)cc1)c1ccc(O)cc1 [Diethylstilbestrol],69.07%
17,CC1(C)[C@H](C(=O)O)N2C(=O)C[C@H]2S1(=O)=O [Sulbactam],199.5%
18,COc1cc2c(cc1OC)CN(CCc1ccc(NC(=O)c3cccc4c(=O)c5cccc(OC)c5[nH]c34)cc1)CC2 [Elacridar (GF120918)],48.29%
19,COc1ccc(C[C@@H](C)NC[C@H](O)c2ccc(O)c(NC=O)c2)cc1 (racemic) [Formoterol Hemifumarate],95.63%
20,CC(=O)Nc1cccc(-n2c(=O)n(C3CC3)c(=O)c3c(Nc4ccc(I)cc4F)n(C)c(=O)c(C)c32)c1 [Trametinib (GSK1120212)],35.92%
21,NC[C@H](O)c1ccc(O)c(O)c1 [Noradrenaline bitartrate monohydrate],75.24%
22,CC(C)C[C@H](NC(=O)CNC(=O)c1cc(Cl)ccc1Cl)B(O)O [MLN2238],125%

row,Compound,Relative cell viability (%)
1,COc1ccc2cccc(CCNC(C)=O)c2c1 [Agomelatine],61.84%
2,COc1cc(NS(=O)(=O)c2ccc(N)cc2)nc(OC)n1 [Sulphadimethoxine],86.06%
3,Nc1c(CC(=O)O)cccc1C(=O)c1ccc(Br)cc1 [Bromfenac Sodium],78.48%
4,Cc1c(Nc2ncccc2C(=O)O)cccc1C(F)(F)F [Flunixin Meglumin],128.5%
5,CNC(=C[N+](=O)[O-])NCCSCc1csc(CN(C)C)n1 [Nizatidine],77.97%
6,O=c1oc2c(O)c(O)cc3c(=O)oc4c(O)c(O)cc1c4c23 [Ellagic acid],74.3%
7,Cc1cnc(C(=O)O)c[n+]1[O-] [Acipimox],94.49%
8,N#Cc1ccc(C(c2ccc(C#N)cc2)n2cncn2)cc1 [Letrozole],82.09%
9,CCCNC(=O)NS(=O)(=O)c1ccc(Cl)cc1 [Chlorpropamide],79.39%
10,O=C(NCCO[N+](=O)[O-])c1cccnc1 [Nicorandil],198.8%
11,CC1Cc2ccccc2N1NC(=O)c1ccc(Cl)c(S(N)(=O)=O)c1 (stereo not shown) [Indapamide],71.61%
12,CCc1cc(C(N)=S)ccn1 [Ethionamide],62.71%
13,CN1C2=CC(=O)/C(=N\NC(N)=O)C=C2CC1S(=O)(=O)O (stereo not shown) [Carbazochrome sodium sulfonate (AC-17)],50.49%
14,CC(C)OC(=O)C(C)(C)Oc1ccc(C(=O)c2ccc(Cl)cc2)cc1 [Fenofibrate],74.15%
15,CC1(C)S[C@@H]2[C@H](NC(=O)[C@H](N)c3ccc(O)cc3)C(=O)N2[C@H]1C(=O)O [Amoxicillin],67.96%
16,C[C@@H]1CC(=O)NN=C1c1ccc(NN=C(C#N)C#N)cc1 [Levosimendan],103.1%
17,CC(=O)Oc1cccc2c1C(=O)c1c(OC(C)=O)cc(C(=O)O)cc1C2=O [Diacerein],73.94%
18,N#C/C(=C1/SC[C@@H](c2ccc(Cl)cc2Cl)S1)n1ccnc1 [Luliconazole],76.67%
19,CNC(=O)c1cc(Oc2ccc(NC(=O)Nc3ccc(Cl)c(C(F)(F)F)c3)cc2)ccn1 [Sorafenib],21.37%
20,CC(=O)OCC(=O)[C@@]12N=C(C)O[C@@H]1C[C@H]1[C@@H]3CCC4=CC(=O)C=C[C@]4(C)[C@H]3[C@@H](O)C[C@@]12C [Deflazacort],91.95%

# Same assay, conditions: ht29 cells, 72 h, 10 µM
row,Compound,Relative cell viability (%)
1,CCc1c(Cl)c(O)c(Cl)c(O)c1C(=O)O[C@H]1[C@H](O)[C@H](OC)[C@H](OC/C2=C\C=C\C[C@H](O)/C(C)=C/[C@H](CC)[C@@H](O[C@@H]3OC(C)(C)[C@@H](OC(=O)C(C)C)[C@H](O)[C@@H]3O)/C(C)=C/C(C)=C/C[C@@H]([C@@H](C)O)OC2=O)O[C@@H]1C [Fidaxomicin],94.85%
2,C[C@]12Cc3c[nH]nc3C[C@@H]1CC[C@@H]1[C@@H]2CC[C@@]2(C)[C@H]1CC[C@]2(C)O [Stanozolol],83.05%

# Source: PMC11672294, “The Antipsychotic Drug Aripiprazole Suppresses Colorectal Cancer by Targeting LAMP2a to Induce RNH1/miR‐99a/mTOR‐Mediated Autophagy and Apoptosis” (Advanced Science, 2024)
